Experiments:
Format in all cases: in vitro ADME
UGT1A3 [1] = biological target: T1, UGT1A3 (Homo sapiens, UniProt P35503); assay: Inhibition of UGT1A3 (chenodeoxy cholic acid glucuronidation) in human liver microsomes; conditions: substrate 15 μM chenodeoxy cholic acid, mean (minimum–maximum)
T1 construct: The reaction mixture containing 0.25 mg/mL protein of HLM; tissue Corning Life Sciences 452156; host or cells: pooled human liver microsomes, 50 donors
T1 sequence (P35503 29-534): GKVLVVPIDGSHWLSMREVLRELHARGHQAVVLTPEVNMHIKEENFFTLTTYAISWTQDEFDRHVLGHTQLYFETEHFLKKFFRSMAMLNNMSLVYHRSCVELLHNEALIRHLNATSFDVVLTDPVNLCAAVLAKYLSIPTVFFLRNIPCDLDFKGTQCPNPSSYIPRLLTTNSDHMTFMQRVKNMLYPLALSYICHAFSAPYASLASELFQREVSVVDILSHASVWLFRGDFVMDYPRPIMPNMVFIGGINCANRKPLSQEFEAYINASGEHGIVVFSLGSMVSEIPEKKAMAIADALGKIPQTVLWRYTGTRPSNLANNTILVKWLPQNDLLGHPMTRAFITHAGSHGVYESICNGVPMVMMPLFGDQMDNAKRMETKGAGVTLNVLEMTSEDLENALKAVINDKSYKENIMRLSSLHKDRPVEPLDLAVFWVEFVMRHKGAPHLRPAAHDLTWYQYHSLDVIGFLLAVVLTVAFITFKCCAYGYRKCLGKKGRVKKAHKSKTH
Procedure: (§1) Their IC50 values were compared to that of sauchinone. […] UGT-mediated activities in the presence of sauchinone as an inhibitor were expressed as percentages of corresponding control values (in absence of sauchinone). From percentages of control activity versus inhibitor concentrations, a sigmoid shaped curve was fitted to the data and IC50 as an enzyme inhibition parameter was calculated by fitting the Hill equation to the data using GraphPad Prism 5 (GraphPad Software Inc., San Diego, CA, USA).

UGT1A6 = biological target: T2, UGT1A6 (Homo sapiens, UniProt P19224); assay: Inhibition of UGT1A6 (serotonin glucuronidation) in human liver microsomes
T2 construct: tissue Corning Life Sciences 452156; host or cells: pooled human liver microsomes
T2 sequence (P19224 27-532): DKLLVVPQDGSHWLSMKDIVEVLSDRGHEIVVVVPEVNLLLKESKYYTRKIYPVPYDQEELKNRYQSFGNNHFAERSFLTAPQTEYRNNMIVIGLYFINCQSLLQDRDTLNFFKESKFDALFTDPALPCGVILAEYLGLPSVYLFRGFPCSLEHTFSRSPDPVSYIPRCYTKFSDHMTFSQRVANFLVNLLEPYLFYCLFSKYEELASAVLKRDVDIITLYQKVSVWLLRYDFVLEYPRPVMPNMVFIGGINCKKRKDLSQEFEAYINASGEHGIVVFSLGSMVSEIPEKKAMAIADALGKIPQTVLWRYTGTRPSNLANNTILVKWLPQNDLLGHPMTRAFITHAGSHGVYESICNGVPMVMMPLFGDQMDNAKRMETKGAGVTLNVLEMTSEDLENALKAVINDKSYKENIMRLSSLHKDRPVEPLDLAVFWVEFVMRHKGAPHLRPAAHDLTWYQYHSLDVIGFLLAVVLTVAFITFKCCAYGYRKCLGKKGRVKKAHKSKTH
Procedure: as §1

UGT1A9 [2] = biological target: T3, UGT1A9 (Homo sapiens, UniProt O60656); assay: Inhibition of UGT1A9 (propofol glucuronidation) in human liver microsomes
T3 construct: The reaction mixture containing 0.25 mg/mL protein of HLM; tissue Corning Life Sciences 452156; host or cells: pooled human liver microsomes, 50 donors
T3 sequence (O60656 26-530): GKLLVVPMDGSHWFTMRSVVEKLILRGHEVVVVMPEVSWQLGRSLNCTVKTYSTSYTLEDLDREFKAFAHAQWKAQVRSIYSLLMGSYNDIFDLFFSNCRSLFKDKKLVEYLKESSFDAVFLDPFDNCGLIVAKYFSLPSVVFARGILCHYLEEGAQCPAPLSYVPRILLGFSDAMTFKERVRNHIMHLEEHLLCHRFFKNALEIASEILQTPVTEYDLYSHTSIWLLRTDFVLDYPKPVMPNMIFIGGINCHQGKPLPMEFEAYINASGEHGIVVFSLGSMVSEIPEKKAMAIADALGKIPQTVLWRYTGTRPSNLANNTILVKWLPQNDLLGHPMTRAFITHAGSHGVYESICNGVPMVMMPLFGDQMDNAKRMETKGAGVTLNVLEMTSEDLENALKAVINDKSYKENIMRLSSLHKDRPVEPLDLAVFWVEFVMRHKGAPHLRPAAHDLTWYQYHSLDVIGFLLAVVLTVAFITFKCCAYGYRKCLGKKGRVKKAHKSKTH
Procedure: as §1

Ugt1a3 [3] = assay: Inhibition of Ugt1a3 (CDCA) in mice liver microsomes; conditions: mouse, pH 7.6, read-out: IC50 of Ugt1a3-catalyzed CDCA
Procedure: (§2) Their IC50 values were compared to that of sauchinone. […] Mice were sacrificed and then livers were removed and rinsed with saline. After weighing the livers, they were homogenized with a four-fold volume of ice-cold homogenizing buffer (0.154 M KCl, 50 mM Tris-base, 1 mM EDTA, pH 7.4). After centrifugation for 35 min at 9000× g and 4 °C, the supernatants were centrifuged for 95 min at 100,000× g and at 4 °C. The supernatants were discarded and the pellets were homogenized again with ice-cold homogenizing buffer. These aliquots were stored at −80 °C. The subsequent process to evaluate the inhibitory effects of sauchinone on UGT activities in MLM was the same as those using HLM. UGT-mediated activities in the presence of sauchinone as an inhibitor were expressed as percentages of corresponding control values (in absence of sauchinone). From percentages of control activity versus inhibitor concentrations, a sigmoid shaped curve was fitted to the data and IC50 as an enzyme inhibition parameter was calculated by fitting the Hill equation to the data using GraphPad Prism 5 (GraphPad Software Inc., San Diego, CA, USA).

Ugt1a9 [4] = biological target: T4, Ugt1a9 (Mus musculus, UniProt Q62452); assay: Inhibition of Ugt1a9 (propofol) in mice liver microsomes; conditions: pH 7.6, probe propofol (100 μM, in UGT substrate cocktail), read-out: IC50 of Ugt1a9-catalyzed propofol
T4 construct: from tissue; host or cells: mouse liver microsomes prepared in house
T4 sequence (Q62452 24-528): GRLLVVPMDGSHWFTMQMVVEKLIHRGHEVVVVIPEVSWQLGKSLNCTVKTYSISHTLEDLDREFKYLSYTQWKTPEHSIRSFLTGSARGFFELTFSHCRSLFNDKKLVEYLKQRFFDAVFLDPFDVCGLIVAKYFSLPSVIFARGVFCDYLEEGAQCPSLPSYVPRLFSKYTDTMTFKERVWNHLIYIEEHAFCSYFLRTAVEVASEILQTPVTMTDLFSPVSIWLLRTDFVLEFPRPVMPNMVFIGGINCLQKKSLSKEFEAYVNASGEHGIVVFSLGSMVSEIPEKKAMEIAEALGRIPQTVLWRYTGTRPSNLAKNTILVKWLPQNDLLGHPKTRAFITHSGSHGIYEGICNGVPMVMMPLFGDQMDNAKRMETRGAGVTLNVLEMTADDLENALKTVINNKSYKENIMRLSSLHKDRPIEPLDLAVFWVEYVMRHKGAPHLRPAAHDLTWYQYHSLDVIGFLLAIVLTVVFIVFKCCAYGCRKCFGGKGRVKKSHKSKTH
Procedure: as §2

IC50 (UGT1A3 [1]): 43.9 µM
IC50 (UGT1A6): 0.758 µM
inhibitory effect on UGT1A9 activity (UGT1A9 [2]; sauchinone up to 200 μM): negligible inhibitory effect
IC50 (UGT1A9 [2]; substrate 100 μM propofol, mean (minimum–maximum)): > 200 µM
IC50 (Ugt1a3 [3]): 79.9 µM
IC50 (Ugt1a9 [4]): 29.8 µM
Structure (SMILES): C[C@@H]1[C@H]2c3cc4c(cc3O[C@@]35OCOC3=CC(=O)[C@H](C[C@H]1C)[C@@H]25)OCO4 [Sauchinone]
